Measurements from US20180291335A1, “MODIFIED POLYNUCLEOTIDES FOR ALTERING CELL PHENOTYPE” (ModernaTX, Inc., priority 2012, published 2018).

Legend:
[1] = test system: human embryonic kidney 293 (HEK293) cells; assay: Cytotoxicity of NTPs, CYTO TOX-GLO assay; assay type: cell-based
Description: The cytotoxicity of natural and modified nucleoside triphosphates (NTPs) alone or in combination with other bases, was analyzed in human embryonic kidney 293 (HEK293) cells in the absence of transfection reagent. […] 10 ul of the NTPs outlined in Table 12 were combined with 10 ul of lipid dilution and incubated for 30 minutes to form a complex before 80 ul of the HEK293 cell suspension was added to the NTP complex.
Natural and modified NTPs were transfected at a concentration of 2.1 nM, 21 nM, 210 nM, 2.1 um, 21 uM, 210 um or 2.1 mM. NTPs in combination were transfected at a total concentration of NTPs of 8.4 nM, 84 nM, 840 nM, 8.4 uM, 84 uM, 840 uM and 8.4 mM. […] The cytotoxicity of the NTPs and the modified G-CSF mRNA was assayed at 4, 24, 48 and 72 hours post addition to the HEK293 cells using a CYTO TOX-GLO™ assay from Promega (Madison, Wis.) following the manufacturer protocol except pippeting was used for lysing the cells instead of shaking the plates.

[2] = test system: peripheral blood mononuclear cells (PBMC); assay: In vitro screening in PBMC: G-CSF protein expression by ELISA; assay type: cell-based, human
Description: (§1) The supernatant was harvested and stored frozen until analyzed by ELISA to determine the G-CSF protein expression, and the induction of the cytokines interferon-alpha (IFN-α) and tumor necrosis factor alpha (TNF-α).

interferon-alpha (IFN-α) = assay: In vitro screening in PBMC: interferon-alpha induction by ELISA; assay type: cell-based, human
Description: as §1

[3] = test system: tumor necrosis factor alpha (TNF-α); assay: In vitro screening in PBMC: tumor necrosis factor alpha induction by ELISA; assay type: cell-based, human
Description: as §1

[4] = PBMC Donor 1, 500 ng G-CSF mRNA
[5] = PBMC Donor 2, 500 ng G-CSF mRNA
[6] = PBMC Donor 3, 500 ng G-CSF mRNA

Cc1c[nH]c(=O)nc1N [5-methyl cytosine]
percent of viable cells ([1]; human, 4 h, 2.1 nM): 92.23%
percent of viable cells ([1]; human, 4 h, 21 nM): 91.40%
percent of viable cells ([1]; human, 4 h, 210 nM): 92.31%
percent of viable cells ([1]; human, 4 h, 2.1 uM): 91.31%
percent of viable cells ([1]; human, 4 h, 21 uM): 91.16%
percent of viable cells ([1]; human, 4 h, 210 uM): 91.54%
percent of viable cells ([1]; human, 4 h, 2.1 mM): 92.01%
percent of viable cells ([1]; human, 24 h, 2.1 nM): 86.35%
percent of viable cells ([1]; human, 24 h, 21 nM): 86.37%
percent of viable cells ([1]; human, 24 h, 210 nM): 84.71%
percent of viable cells ([1]; human, 24 h, 2.1 uM): 85.14%
percent of viable cells ([1]; human, 24 h, 21 uM): 84.72%
percent of viable cells ([1]; human, 24 h, 210 uM): 85.76%
percent of viable cells ([1]; human, 24 h, 2.1 mM): 87.97%
percent of viable cells ([1]; human, 48 h, 2.1 nM): 88.18%
percent of viable cells ([1]; human, 48 h, 21 nM): 87.10%
percent of viable cells ([1]; human, 48 h, 210 nM): 86.44%
percent of viable cells ([1]; human, 48 h, 2.1 uM): 86.18%
percent of viable cells ([1]; human, 48 h, 21 uM): 85.74%
percent of viable cells ([1]; human, 48 h, 210 uM): 85.94%
percent of viable cells ([1]; human, 48 h, 2.1 mM): 87.29%
percent of viable cells ([1]; human, 72 h, 2.1 nM): 91.93%
percent of viable cells ([1]; human, 72 h, 21 nM): 92.10%
percent of viable cells ([1]; human, 72 h, 210 nM): 89.97%
percent of viable cells ([1]; human, 72 h, 2.1 uM): 90.92%
percent of viable cells ([1]; human, 72 h, 21 uM): 92.26%
percent of viable cells ([1]; human, 72 h, 210 uM): 88.10%
percent of viable cells ([1]; human, 72 h, 2.1 mM): 96.08%

Cn1cc([C@@H]2O[C@H](CO)[C@@H](O)[C@H]2O)c(=O)[nH]c1=O [N1-methyl pseudouridine]
percent of viable cells ([1]; human, 4 h, 2.1 nM): 91.89%
percent of viable cells ([1]; human, 4 h, 21 nM): 91.44%
percent of viable cells ([1]; human, 4 h, 210 nM): 92.15%
percent of viable cells ([1]; human, 4 h, 2.1 uM): 90.41%
percent of viable cells ([1]; human, 4 h, 21 uM): 91.48%
percent of viable cells ([1]; human, 4 h, 210 uM): 91.43%
percent of viable cells ([1]; human, 4 h, 2.1 mM): 92.45%
percent of viable cells ([1]; human, 24 h, 2.1 nM): 87.79%
percent of viable cells ([1]; human, 24 h, 21 nM): 86.85%
percent of viable cells ([1]; human, 24 h, 210 nM): 85.89%
percent of viable cells ([1]; human, 24 h, 2.1 uM): 85.72%
percent of viable cells ([1]; human, 24 h, 21 uM): 85.17%
percent of viable cells ([1]; human, 24 h, 210 uM): 86.48%
percent of viable cells ([1]; human, 24 h, 2.1 mM): 88.92%
percent of viable cells ([1]; human, 48 h, 2.1 nM): 87.81%
percent of viable cells ([1]; human, 48 h, 21 nM): 86.72%
percent of viable cells ([1]; human, 48 h, 210 nM): 87.38%
percent of viable cells ([1]; human, 48 h, 2.1 uM): 85.85%
percent of viable cells ([1]; human, 48 h, 21 uM): 87.52%
percent of viable cells ([1]; human, 48 h, 210 uM): 86.02%
percent of viable cells ([1]; human, 48 h, 2.1 mM): 89.84%
percent of viable cells ([1]; human, 72 h, 2.1 nM): 92.98%
percent of viable cells ([1]; human, 72 h, 21 nM): 92.84%
percent of viable cells ([1]; human, 72 h, 210 nM): 92.40%
percent of viable cells ([1]; human, 72 h, 2.1 uM): 92.25%
percent of viable cells ([1]; human, 72 h, 21 uM): 93.83%
percent of viable cells ([1]; human, 72 h, 210 uM): 93.03%
percent of viable cells ([1]; human, 72 h, 2.1 mM): 96.80%

Adenine
percent of viable cells ([1]; HEK293, individual NTP 2.1 nM, 4 hr): 93.48%
percent of viable cells ([1]; HEK293, individual NTP 2.1 nM, 24 hr): 86.44%
percent of viable cells ([1]; HEK293, individual NTP 2.1 nM, 48 hr): 92.12%
percent of viable cells ([1]; HEK293, individual NTP 2.1 nM, 72 hr): 95.74%
percent of viable cells ([1]; HEK293, individual NTP 21 nM, 4 hr): 93.21%
percent of viable cells ([1]; HEK293, individual NTP 21 nM, 24 hr): 87.19%
percent of viable cells ([1]; HEK293, individual NTP 21 nM, 48 hr): 91.13%
percent of viable cells ([1]; HEK293, individual NTP 21 nM, 72 hr): 93.88%
percent of viable cells ([1]; HEK293, individual NTP 210 nM, 4 hr): 90.36%
percent of viable cells ([1]; HEK293, individual NTP 210 nM, 24 hr): 86.94%
percent of viable cells ([1]; HEK293, individual NTP 210 nM, 48 hr): 89.17%
percent of viable cells ([1]; HEK293, individual NTP 210 nM, 72 hr): 92.22%
percent of viable cells ([1]; HEK293, individual NTP 2.1 uM, 4 hr): 90.23%
percent of viable cells ([1]; HEK293, individual NTP 2.1 uM, 24 hr): 86.81%
percent of viable cells ([1]; HEK293, individual NTP 2.1 uM, 48 hr): 89.80%
percent of viable cells ([1]; HEK293, individual NTP 2.1 uM, 72 hr): 94.58%
percent of viable cells ([1]; HEK293, individual NTP 21 uM, 4 hr): 91.20%
percent of viable cells ([1]; HEK293, individual NTP 21 uM, 24 hr): 86.86%
percent of viable cells ([1]; HEK293, individual NTP 21 uM, 48 hr): 89.94%
percent of viable cells ([1]; HEK293, individual NTP 21 uM, 72 hr): 93.83%
percent of viable cells ([1]; HEK293, individual NTP 210 uM, 4 hr): 85.97%
percent of viable cells ([1]; HEK293, individual NTP 210 uM, 24 hr): 87.31%
percent of viable cells ([1]; HEK293, individual NTP 210 uM, 48 hr): 90.55%
percent of viable cells ([1]; HEK293, individual NTP 210 uM, 72 hr): 94.81%
percent of viable cells ([1]; HEK293, individual NTP 2.1 mM, 4 hr): 90.03%
percent of viable cells ([1]; HEK293, individual NTP 2.1 mM, 24 hr): 88.42%
percent of viable cells ([1]; HEK293, individual NTP 2.1 mM, 48 hr): 93.71%
percent of viable cells ([1]; HEK293, individual NTP 2.1 mM, 72 hr): 97.49%

B1: mCherry: control mCherry mRNA (SEQ ID NO: 410, Cap1) fully modified with 5-methylcytosine and pseudouridine (nucleic acid)
chain: GGGAAAUAAGAGAGAAAAGAAGAGUAAGAAGAAAUAUAAGAGCCACCAUGGUAUCCAAGGGGGAGGAGGACAACAUGGCGAUCAUCAAGGAGUUCAUGCGAUUCAAGGUGCACAUGGAAGGUUCGGUCAACGGACACGAAUUUGAAAUCGAAGGAGAGGGUGAAGGAAGGCCCUAUGAAGGGACACAGACCGCGAAACUCAAGGUCACGAAAGGGGGACCACUUCCUUUCGCCUGGGACAUUCUUUCGCCCCAGUUUAUGUACGGGUCCAAAGCAUAUGUGAAGCAUCCCGCCGAUAUUCCUGACUAUCUGAAACUCAGCUUUCCCGAGGGAUUCAAGUGGGAGCGGGUCAUGAACUUUGAGGACGGGGGUGUAGUCACCGUAACCCAAGACUCAAGCCUCCAAGACGGCGAGUUCAUCUACAAGGUCAAACUGCGGGGGACUAACUUUCCGUCGGAUGGGCCGGUGAUGCAGAAGAAAACGAUGGGAUGGGAAGCGUCAUCGGAGAGGAUGUACCCAGAAGAUGGUGCAUUGAAGGGGGAGAUCAAGCAGAGACUGAAGUUGAAAGAUGGGGGACAUUAUGAUGCCGAGGUGAAAACGACAUACAAAGCGAAAAAGCCGGUGCAGCUUCCCGGAGCGUAUAAUGUGAAUAUCAAGUUGGAUAUUACUUCACACAAUGAGGACUACACAAUUGUCGAACAGUACGAACGCGCUGAGGGUAGACACUCGACGGGAGGCAUGGACGAGUUGUACAAAUGAUAAGCUGCCUUCUGCGGGGCUUGCCUUCUGGCCAUGCCCUUCUUCUCUCCCUUGCACCUGUACCUCUUGGUCUUUGAAUAAAGCCUGAGUAGGAAG
modifications: Cap1; 5mC/pseudoU modified; Description of Artificial Sequence: Synthetic Transcript Sequence
G-CSF Protein Expression [2, 4]: 5 pg/mL
G-CSF Protein Expression [2, 5]: 168 pg/mL
G-CSF Protein Expression [2, 6]: 164 pg/mL
IFN-α Expression (interferon-alpha (IFN-α); [4]): 100 pg/mL
IFN-α Expression (interferon-alpha (IFN-α); [5]): 75 pg/mL
IFN-α Expression (interferon-alpha (IFN-α); [6]): 143 pg/mL
TNF-α Expression [3, 4]: 67 pg/mL
TNF-α Expression [3, 5]: 100 pg/mL
TNF-α Expression [3, 6]: 133 pg/mL

B2: α-thiocytidine: G-CSF mRNA (SEQ ID NO: 408) fully modified with α-thiocytidine (nucleic acid)
chain: GGGAAAUAAGAGAGAAAAGAAGAGUAAGAAGAAAUAUAAGAGCCACCAUGGCCGGUCCCGCGACCCAAAGCCCCAUGAAACUUAUGGCCCUGCAGUUGCUGCUUUGGCACUCGGCCCUCUGGACAGUCCAAGAAGCGACUCCUCUCGGACCUGCCUCAUCGUUGCCGCAGUCAUUCCUUUUGAAGUGUCUGGAGCAGGUGCGAAAGAUUCAGGGCGAUGGAGCCGCACUCCAAGAGAAGCUCUGCGCGACAUACAAACUUUGCCAUCCCGAGGAGCUCGUACUGCUCGGGCACAGCUUGGGGAUUCCCUGGGCUCCUCUCUCGUCCUGUCCGUCGCAGGCUUUGCAGUUGGCAGGGUGCCUUUCCCAGCUCCACUCCGGUUUGUUCUUGUAUCAGGGACUGCUGCAAGCCCUUGAGGGAAUCUCGCCAGAAUUGGGCCCGACGCUGGACACGUUGCAGCUCGACGUGGCGGAUUUCGCAACAACCAUCUGGCAGCAGAUGGAGGAACUGGGGAUGGCACCCGCGCUGCAGCCCACGCAGGGGGCAAUGCCGGCCUUUGCGUCCGCGUUUCAGCGCAGGGCGGGUGGAGUCCUCGUAGCGAGCCACCUUCAAUCAUUUUUGGAAGUCUCGUACCGGGUGCUGAGACAUCUUGCGCAGCCGUGAAGCGCUGCCUUCUGCGGGGCUUGCCUUCUGGCCAUGCCCUUCUUCUCUCCCUUGCACCUGUACCUCUUGGUCUUUGAAUAAAGCCUGAGUAGGAAG
modifications: α-thiocytidine modified; Description of Artificial Sequence: Synthetic Transcript Sequence
G-CSF Protein Expression [2, 4]: 105 pg/mL
G-CSF Protein Expression [2, 5]: 264 pg/mL
G-CSF Protein Expression [2, 6]: 245 pg/mL
IFN-α Expression (interferon-alpha (IFN-α); [4]): 1,138 pg/ml
IFN-α Expression (interferon-alpha (IFN-α); [5]): 565 pg/mL
IFN-α Expression (interferon-alpha (IFN-α); [6]): 695 pg/mL
cytokine induction (interferon-alpha (IFN-α); PBMC, G-CSF mRNA, result in words): increase cytokine stimulation
TNF-α Expression [3, 4]: 300 pg/mL
TNF-α Expression [3, 5]: 273 pg/mL
TNF-α Expression [3, 6]: 277 pg/mL
